# Data from patent publication US7342004B2, “Thioether sulphamate steroids as steroid inhibitors and anti-cancer compounds” (Sterix Ltd., priority 2000, dated 2008).
# Read-outs that look alike come from different tables or passages of the source.
# Key:
# CuZnSOD = CuZnSOD (UniProt P00442); experiment: Superoxide dismutase (SOD) spectrophotometric XTT assay, Protocol 1; format: biochemical
# Experimental: In this reaction, 3′-{1-[(phenylamino)-carbonyl]-3,4-tetrazolium}-bis(4-methoxy-6-nitro)benzenesulfonic acid hydrate (XTT) is converted to a colourimetric product by the action of superoxide ions (produced by xanthine oxidase (XO) and xanthine). Production of superoxide ions is inhibited by SOD resulting in decreased product. The ability of test compounds to inhibit SOD is measured by their ability to restore production of the coloured product. Reactions were performed in a total volume of 0.1 ml of buffer A (42 mM Na2CO3 (pH 9.4), 0.1 mM xanthine (Sigma), 0.1 mM EDTA, 0.026 mM XTT (Sigma)).
# The reaction was incubated at 24° C. for 30 minutes and products determined by measuring absorobance at 470 nm. All determinations were made in duplicate/triplicate.
# SOD activity was measured in accordance with Protocol 1.
# Initial analyses were performed using test compounds at 100 μM.
# STS = experiment: Plate assay, % inhibition; format: biochemical
# Experimental: (§1) The STS inhibition provided by the compounds was determined in accordance with the placental microsomes assay of Protocol 4 and a plate assay.
# steroid sulphatase (STS) = biological target: T1, steroid sulphatase (STS) (Homo sapiens, UniProt P08842); experiment: Inhibition of steroid sulphatase activity in placental microsomes, Protocol 4; format: biochemical; conditions: for inhibition at 0.01 µM: read-out: Placental Microsomes, % inhibition 10 nM; for inhibition at 1 µM: read-out: Placental Microsomes, % inhibition 1 μM
# T1 sequence (P08842 22-583): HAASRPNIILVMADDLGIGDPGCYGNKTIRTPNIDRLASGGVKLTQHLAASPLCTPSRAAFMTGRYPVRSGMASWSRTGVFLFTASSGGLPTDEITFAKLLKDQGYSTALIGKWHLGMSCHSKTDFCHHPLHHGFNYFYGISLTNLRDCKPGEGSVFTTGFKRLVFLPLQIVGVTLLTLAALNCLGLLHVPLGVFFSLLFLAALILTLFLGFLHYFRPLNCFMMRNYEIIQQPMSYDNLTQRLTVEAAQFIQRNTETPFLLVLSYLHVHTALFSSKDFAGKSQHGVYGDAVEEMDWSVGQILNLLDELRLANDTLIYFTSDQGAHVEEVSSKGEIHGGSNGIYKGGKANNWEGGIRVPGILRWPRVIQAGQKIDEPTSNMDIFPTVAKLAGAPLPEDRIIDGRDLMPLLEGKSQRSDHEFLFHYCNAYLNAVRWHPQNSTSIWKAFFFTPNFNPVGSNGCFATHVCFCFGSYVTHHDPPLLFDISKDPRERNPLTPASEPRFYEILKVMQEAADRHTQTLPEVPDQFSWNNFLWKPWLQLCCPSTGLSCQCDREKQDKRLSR
# Experimental: Sulphatase-positive human placenta from normal term pregnancies are thoroughly minced with scissors and washed once with cold phosphate buffer (pH 7.4, 50 mM) then resuspended in cold phosphate buffer (5 ml/g tissue). Homogenisation is accomplished with an Ultra-Turrax homogeniser, using three 10 second bursts separated by 2 minute cooling periods in ice. Nuclei and cell debris are removed by centrifuging (4° C.) at 2000 g for 30 minutes and portions (2 ml) of the supernatant are stored at […] The protein concentration of the supernatants is determined by the method of Bradford (Anal. Biochem., 72, 248-254 (1976)).
# Incubations (1 ml) are carried out using a protein concentration of […], substrate concentration of […] [6,7-3H]oestrone-3-sulphate (specific activity 60 Ci/mmol from New England Nuclear, Boston, Mass., U.S.A.) and an incubation time of 20 minutes at 37° C. If necessary eight concentrations of compounds are employed: 0 (i.e. control); 0.05 mM; 0.1 mM; 0.2 mM; 0.4 mM; 0.6 mM; 0.8 mM; 1.0 mM. After incubation each sample is cooled and the medium (1 ml) was pipetted into separate tubes containing [14C]oestrone (7×10^3 dpm) (specific activity 97 Ci/mmol from Amersham International Radiochemical Centre, Amersham, U.K.). The mixture is shaken thoroughly for 30 seconds with toluene (5 ml). Experiments have shown that >90% [14C]oestrone and <0.1% [3H]oestrone-3-sulphate is removed from the aqueous phase by this treatment. A portion (2 ml) of the organic phase was removed, evaporated and the 3H and 14C content of the residue determined by scintillation spectrometry. The mass of oestrone-3-sulphate hydrolysed is calculated from the 3H counts obtained (corrected for the volumes of the medium and organic phase used, and for recovery of [14C]oestrone added) and the specific activity of the substrate.
# as §1
# rat liver E1-STS = biological target: T2, rat liver E1-STS (Rattus norvegicus, UniProt P15589); conditions: administered either orally or subcutaneously; cited from earlier work
# T2 construct: from tissue; host or cells: rat liver (after oral or subcutaneous dosing)
# T2 sequence (P15589 20-577): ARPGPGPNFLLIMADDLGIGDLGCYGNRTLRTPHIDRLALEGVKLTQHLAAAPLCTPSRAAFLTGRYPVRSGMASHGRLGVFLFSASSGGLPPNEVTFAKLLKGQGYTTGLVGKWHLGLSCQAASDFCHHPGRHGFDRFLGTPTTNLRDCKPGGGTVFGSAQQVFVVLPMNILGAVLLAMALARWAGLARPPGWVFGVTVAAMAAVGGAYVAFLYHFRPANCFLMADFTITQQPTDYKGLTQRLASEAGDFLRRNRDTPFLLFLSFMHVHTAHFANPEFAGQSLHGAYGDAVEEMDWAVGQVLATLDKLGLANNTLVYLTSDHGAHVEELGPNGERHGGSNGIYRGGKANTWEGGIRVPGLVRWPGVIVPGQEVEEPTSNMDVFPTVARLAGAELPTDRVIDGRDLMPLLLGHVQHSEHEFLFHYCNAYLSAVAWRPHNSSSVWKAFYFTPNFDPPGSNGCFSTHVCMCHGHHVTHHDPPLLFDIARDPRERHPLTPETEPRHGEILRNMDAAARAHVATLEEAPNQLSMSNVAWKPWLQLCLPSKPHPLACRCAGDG
# DHA-STS = biological target: T3, DHA-STS (Rattus norvegicus, UniProt P15589); conditions: administered either orally or subcutaneously; cited from earlier work
# T3 construct: from tissue; host or cells: rat liver (after oral or subcutaneous dosing)
# T3 sequence (P15589 20-577): T2 sequence (P15589 20-577)
# uterus = conditions: oral, rats, higher than that of estradiol; cited from earlier work
# [1] = xanthine oxidase/XTT, 24° C., 30 minutes, read-out: IC 50/μM (+/− SEM) SOD Inhibition
# [2] = read-out: IC 50/μM (+/− SEM) SOD Inhibition, xanthine oxidase/XTT, 24° C., 30 minutes
structure (smiles),measurement,setting,value
"CCSc1cc2c(cc1O)CCC1C2CC[C@]2(C)C(=O)CCC12 (stereo partly drawn) [Compound 10, 2-ethylsulfanylestrone]",IC50,CuZnSOD; [1],79 µM
same,"Plate Assay, % inhibition 0.1 μM",STS,<1%
same,"Plate Assay, % inhibition 1 μM",STS,<4%
same,"Plate Assay, % inhibition 10 μM",STS,14%
"CC12CCC3c4cc(C(F)F)c(O)cc4CCC3C1CCC2=O (stereo not drawn) [Compound 17, 2-difluoromethylestrone]",IC50,CuZnSOD; [1],> 100 µM
"CC12CCC3c4cc(Cl)c(O)cc4CCC3C1CCC2=O (stereo not drawn) [Compound 12, 2-chloroestrone]",IC50,CuZnSOD; [1],83 µM
"COc1cc2c(cc1O)CCC1C2CCC2(C)C(O)CCC12 (stereo not drawn) [Compound 3, 2-methoxy-17β-estradiol, reference compound]",IC50,CuZnSOD; [1],12 µM
"COc1cc2c(c([N+](=O)[O-])c1O)CCC1C2CCC2(C)C(=O)CCC12 (stereo not drawn) [Compound 22, 2-methoxy-4-nitroestrone]",IC50,CuZnSOD; [1],> 100 µM
"COc1cc2c(cc1O)CCC1C2CCC2(C)C1CCC2(O)Cc1ccccc1 (stereo not drawn) [Compound 13, 2-methoxy-17α-benzyl-estradiol]",IC50,CuZnSOD; [2],88 µM
"CCc1cc2c(cc1O)CCC1C2CCC2(C)C(=O)CCC12 (stereo not drawn) [Compound 21, 2-ethylestrone]",IC50,CuZnSOD; [1],> 100 µM
"COc1cc2c3c(c(=O)oc2cc1O)CCCCC3 [Compound 14, 3-Hydroxy-2-methoxy-6-oxo-8,9,10,11-tetrahydro-7H-cyclohepta-[c][1]benzopyran]",IC50,CuZnSOD; [1],91 µM
CCSc1cc2c(cc1OS(N)(=O)=O)CCC1C2CC[C@]2(C)C(=O)CCC12 (stereo partly drawn) [Compound 38],inhibition at 0.01 µM,steroid sulphatase (STS),< 5%
same,inhibition at 1 µM,steroid sulphatase (STS),66%
same,"Plate Assay, % inhibition 0.1 μM",STS,<1%
same,"Plate Assay, % inhibition 1 μM",STS,1%
same,"Plate Assay, % inhibition 10 μM",STS,16%
"CSc1cc2c(cc1O)CCC1C2CCC2(C)C1CCC2(O)Cc1ccc(C(C)(C)C)cc1 (stereo not drawn) [Compound 31, 17-(4-tert-Butyl-benzyl)-13-methyl-2-methylsulfanyl-7,8,9,11,12,13,14,15,16,17-decahydro-6H-cyclopenta[a]phenanthrene-3,17-diol]","Plate Assay, % inhibition 0.1 μM",STS,<1%
same,"Plate Assay, % inhibition 1 μM",STS,<1%
same,"Plate Assay, % inhibition 10 μM",STS,50%
"CC12CCC3C(=CCc4cc(OS(N)(=O)=O)ccc43)C1CCC2=O (stereo not drawn) [Compound 27, equilin-3-O-sulphamate]",IC50,CuZnSOD; [1],> 100 µM
"CC12CCC3c4cc(S(C)(=O)=O)c(O)cc4CCC3C1CCC2=O (stereo not drawn) [Compound 19, 2-methylsulfonylestrone]",IC50,CuZnSOD; [1],> 100 µM
"CC12CCC3c4cc(F)c(O)cc4CCC3C1CCC2=O (stereo not drawn) [Compound 11, 2-fluoroestrone]",IC50,CuZnSOD; [1],81 µM
"CCc1cc2c(cc1OS(N)(=O)=O)CCC1C2CCC2(C)C(=O)CCC12 (stereo not drawn) [Compound 26, 2-ethylestrone-3-O-sulphamate]",IC50,CuZnSOD; [1],> 100 µM
"CSc1cc2c(cc1OS(N)(=O)=O)CCC1C2CC[C@@]2(C)C1CC[C@@]2(O)Cc1ccccc1 (stereo in doubt) [Compound 30, Sulfamic acid 17-benzyl-17-hydroxy-13-methyl-2-methylsulfanyl-7,8,9,11,12,13,14, 15,16,17-decahydro-6H-cyclopenta[a]phenanthren-3-yl ester]",IC50,steroid sulphatase (STS); placental microsomes,0.044 µM
same,inhibition at 0.01 µM,steroid sulphatase (STS),15.5%
same,inhibition at 0.1 µM,"steroid sulphatase (STS); read-out: Placental Microsomes, % inhibition 100 nM",69.7%
same,inhibition at 1 µM,steroid sulphatase (STS),93%
same,inhibition at 10 µM,"steroid sulphatase (STS); read-out: Placental Microsomes, % inhibition 10 μM",97.4%
same,"Plate Assay, % inhibition 0.1 μM",STS,<1%
same,"Plate Assay, % inhibition 1 μM",STS,<1%
same,"Plate Assay, % inhibition 10 μM",STS,31%
"C[S+]([O-])c1cc2c(cc1O)CCC1C2CCC2(C)C(=O)CCC12 (stereo not drawn) [Compound 18, 2-methylsulfoxyestrone]",IC50,CuZnSOD; [1],> 100 µM
"COc1cc2c(cc1O)CCC1C2CCC2(C)C(O)CCC12 (stereo not drawn) [Compound 4, 2-methoxy-17α-estradiol]",IC50,CuZnSOD; [1],13 µM
"CC12CCC3c4cc(I)c(O)cc4CCC3C1CCC2=O (stereo not drawn) [Compound 16, 2-iodoestrone]",IC50,CuZnSOD; [1],> 100 µM
"CC12CCC3c4cc([N+](=O)[O-])c(O)cc4CCC3C1CCC2=O (stereo not drawn) [Compound 20, 2-nitroestrone]",IC50,CuZnSOD; [1],> 100 µM
"CSc1cc2c(cc1O)CCC1C2CCC2(C)C(O)CCC12 (stereo not drawn) [Compound 1, 2-methylsulfanylestradiol]",IC50,CuZnSOD; [1],10 µM
"CSc1cc2c(cc1OS(N)(=O)=O)CCC1C2CCC2(C)C1CCC2(O)Cc1ccc(C(C)(C)C)cc1 (stereo not drawn) [Compound 32, Sulfamic acid 17-(4-tert-butyl-benzyl)-17-hydroxy-13-methyl-2-methylsulfanyl-7,8,9,11,12,13,14,15,16,17-decahydro-6H-cyclopenta[a]phenanthren-3-yl ester]",inhibition at 1 µM,steroid sulphatase (STS),81.8%
same,"Plate Assay, % inhibition 0.1 μM",STS,<1%
same,"Plate Assay, % inhibition 1 μM",STS,<1%
same,"Plate Assay, % inhibition 10 μM",STS,48%
"CSc1cc2c(cc1O)CCC1C2CC[C@]2(C)C(=O)CCC12 (stereo partly drawn) [Compound 8, 2-methylsulfanylestrone]",IC50,CuZnSOD; [1],21 µM
same,"Plate Assay, % inhibition 0.1 μM",STS,<1%
same,"Plate Assay, % inhibition 1 μM",STS,1%
same,"Plate Assay, % inhibition 10 μM",STS,11%
"CCOc1cc2c(cc1O)CCC1C2CCC2(C)C(O)CCC12 (stereo not drawn) [Compound 2, 2-ethoxyestradiol]",IC50,CuZnSOD; [1],11 µM
"COc1cc2c(cc1O)CCC1C2CCC2(C)C1CCC2(O)Cc1ccc(C(C)(C)C)cc1 (stereo not drawn) [Compound 23, 2-methoxy-17α-(4-tert-butylbenzyl)oestradiol]",IC50,CuZnSOD; [2],> 100 µM
"CC12CCC3c4ccc(OS(N)(=O)=O)cc4CCC3C1CCC2=O (stereo not drawn) [Compound 24, estrone-3-O-sulphamate, reference compound]",IC50,CuZnSOD; [1],> 100 µM
same,inhibition of rat liver E1-STS activity,rat liver E1-STS,99%
same,inhibition of rat liver DHA-STS activity,DHA-STS,99%
same,oral uterotrophic activity in rats relative to estradiol,uterus,100 times
"C=CCc1cc2c(cc1O)CCC1C2CCC2(C)C(=O)CCC12 (stereo not drawn) [Compound 15, 2-allylestrone]",IC50,CuZnSOD; [1],> 100 µM
"COc1cc2c(cc1O)CCC1C2CC[C@]2(C)CCCC12 (stereo partly drawn) [Compound 29, 2-methoxy-17-deoxyoestrone]",IC50,CuZnSOD; [1],> 100 µM
"CCSc1cc2c(cc1O)CCC1C2CCC2(C)C(O)CCC12 (stereo not drawn) [Compound 6, 2-ethylsulfanylestradiol]",IC50,CuZnSOD; [1],14 µM
"CSc1cc2c(cc1O)CCC1C2CC[C@]2(C)CCCC12 (stereo partly drawn) [Compound 28, 2-methylsulfanyl-17-deoxyoestrone]",IC50,CuZnSOD; [1],> 100 µM
"COc1cc2c(cc1O)CCC1C2CCC2(C)C(=O)CCC12 (stereo not drawn) [Compound 5, 2-methoxyestrone, reference compound]",IC50,CuZnSOD; [1],14 µM
"COc1cc2c(cc1N)CCC1C2CCC2(C)C(=O)CCC12 (stereo not drawn) [Compound 9, 2-methoxy-3-aminoestrone]",IC50,CuZnSOD; [1],79 µM
"CCOc1cc2c(cc1O)CCC1C2CCC2(C)C(=O)CCC12 (stereo not drawn) [Compound 7, 2-ethoxyestrone]",IC50,CuZnSOD; [1],19 µM
